Assay results as given in patent publication US11072617B2, “Bicyclic sulfones and sulfoxides and methods of use thereof” (Genentech, Inc., priority 2017, dated 2021).

What follows are compounds tested against human RIP1 kinase domain (2-375) (Homo sapiens (Human), UniProt Q13546) (assay: RIP1 kinase inhibition biochemical assay (Transcreener ADP, fluorescence polarization)). Details: Ki app from tight-binding Morrison equation; 50 nM enzyme, 50 uM ATP, 2 hours incubation.
Method in brief: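 Baculovirus-expressed human RIP1 kinase domain (2-375), 50 nM, incubated 2 h with compounds in pH 7.5 Hepes, 30 mM MgCl2, 50 uM ATP, 0.5% DMSO. ADP detected by Transcreener fluorescence-polarization tracer displacement; Ki^app from Morrison tight-binding fit.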

Chain of human RIP1 kinase domain (2-375) (Q13546 2-375): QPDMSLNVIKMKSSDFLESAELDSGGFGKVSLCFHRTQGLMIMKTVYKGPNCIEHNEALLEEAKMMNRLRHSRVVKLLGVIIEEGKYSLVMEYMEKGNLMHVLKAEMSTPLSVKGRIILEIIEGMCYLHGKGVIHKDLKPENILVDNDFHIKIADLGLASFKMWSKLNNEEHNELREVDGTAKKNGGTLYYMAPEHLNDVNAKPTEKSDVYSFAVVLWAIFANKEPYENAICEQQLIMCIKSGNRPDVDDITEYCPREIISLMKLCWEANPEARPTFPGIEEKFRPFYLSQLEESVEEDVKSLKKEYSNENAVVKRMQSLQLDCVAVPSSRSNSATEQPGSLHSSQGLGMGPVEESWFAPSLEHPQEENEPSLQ

SMILES	Ki [nM]
[O-][S+](c1nc2n(n1)C(c1cc(F)cc(F)c1)CC2)C(F)F (centres unmarked) [Example 176, 2-(Difluoromethylsulfinyl)-5-(3,5-difluorophenyl)-6,7-dihydro-5H-pyrrolo[1,2-b][1,2,4]triazole]	110
O=S(=O)(c1nc2n(n1)[C@@H](c1cccc(F)c1F)C[C@H]2F)C1CC1 (single isomer, unassigned) [Example 36]	880
[O-][S@@+](c1nc2n(n1)[C@H](c1ccccc1Cl)CC2)C(F)F [Example 17, (5S)-5-(2-chlorophenyl)-2-[(S)-difluoromethylsulfinyl]-6,7-dihydro-5H-pyrrolo[1,2-b][1,2,4]triazole]	50
N#CC[S@@+]([O-])c1cc2n(n1)[C@H](c1ccccc1)C[C@@H]2F (single isomer, unassigned) [Example 91]	150
O=S(=O)(c1nc2n(n1)[C@H](c1ccccc1)C[C@@H]2F)C1CCOC1 (stereo partly drawn) [Example 166, (5S,7S)-7-fluoro-5-phenyl-2-tetrahydrofuran-3-ylsulfonyl-6,7-dihydro-5H-pyrrolo[1,2-b][1,2,4]triazole]	43
C[C@@H](F)S(=O)(=O)c1nc2n(n1)[C@H](c1ccccc1)C[C@@H]2F (single isomer, unassigned) [Example 159]	15
O=S(=O)(c1nc2n(n1)[C@H](c1ccc(F)cc1)C[C@@H]2F)C1CC1F (stereo in doubt) [Example 196, (5S,7S)-7-fluoro-5-(4-fluorophenyl)-2-[(1S,2S)-2-fluorocyclopropyl]sulfonyl-6,7-dihydro-5H-pyrrolo[1,2-b][1,2,4]triazole]	32
CS(=O)(=O)c1nc2n(n1)[C@H](c1ccccc1F)CC2 (single isomer, unassigned) [Example 7]	250
CCS(=O)(=O)c1nc2n(n1)C(c1ccccc1)CC2 (racemic) [Example 2, 2-ethylsulfonyl-5-phenyl-6,7-dihydro-5H-pyrrolo[1,2-b][1,2,4]triazole]	864
CC(C)(C)[S+]([O-])c1nc2n(n1)[C@H](c1ccccc1)C[C@@H]2F (stereo partly drawn) [Example 24, (5S,7S)-2-(tert-butylsulfinyl)-7-fluoro-5-phenyl-6,7-dihydro-5H-pyrrolo[1,2-b][1,2,4]triazole]	20
[O-][S+](c1nc2n(n1)C(c1ccccc1)CC2)C(F)F (centres unmarked) [Example 1, 2-(difluoromethylsulfinyl)-5-phenyl-6,7-dihydro-5H-pyrrolo[1,2-b][1,2,4]triazole]	58
[2H][C@H]1C[C@@H](c2ccccc2)n2nc(S(=O)(=O)C3CC3)nc21 [Example 41, (5S,7S)-2-cyclopropylsulfonyl-7-deuterio-5-phenyl-6,7-dihydro-5H-pyrrolo[1,2-b][1,2,4]triazole]	140
CC[S+]([O-])c1nc2n(n1)[C@H](c1ccccc1)C[C@@H]2F (stereo partly drawn) [Example 107, (5S,7S)-2-ethylsulfinyl-7-fluoro-5-phenyl-6,7-dihydro-5H-pyrrolo[1,2-b][1,2,4]triazole]	34
COC[S+]([O-])c1nc2n(n1)[C@H](c1ccccc1)C[C@@H]2F (stereo partly drawn) [Example 115, (5S,7S)-7-fluoro-2-(methoxymethylsulfinyl)-5-phenyl-6,7-dihydro-5H-pyrrolo[1,2-b][1,2,4]triazole]	31
[O-][S@+](CF)c1nc2n(n1)[C@H](c1cc(F)ccc1F)C[C@@H]2F (single isomer, unassigned) [Example 79]	190
N#CC[S@+]([O-])c1cc2n(n1)[C@H](c1ccccc1)C[C@@H]2F (single isomer, unassigned) [Example 92]	19
O=S(=O)(CCOC(F)F)c1nc2n(n1)[C@H](c1ccccc1)C[C@@H]2F (single isomer, unassigned) [Example 198]	68
[O-][S+](c1nc2n(n1)[C@H](c1ccccc1)C[C@@H]2F)C1CC1 (stereo partly drawn) [Example 27, (5S,7S)-2-cyclopropylsulfinyl-7-fluoro-5-phenyl-6,7-dihydro-5H-pyrrolo[1,2-b][1,2,4]triazole]	33
CC[S@+]([O-])c1nc2n(n1)[C@H](c1ccccc1)CC2 [Example 3, (5S)-2-[(S)-ethylsulfinyl]-5-phenyl-6,7-dihydro-5H-pyrrolo[1,2-b][1,2,4]triazole]	162
O=S(=O)(c1nc2n(n1)[C@H](c1cccc(Cl)c1F)C[C@@H]2F)[C@H]1C[C@@H]1F [Example 219, (5S,7S)-5-(3-chloro-2-fluoro-phenyl)-7-fluoro-2-[(1S,2S)-2-fluorocyclopropyl]sulfonyl-6,7-dihydro-5H-pyrrolo[1,2-b][1,2,4]triazole]	25
O=S(=O)(c1nc2n(n1)[C@H](c1ccccc1F)C[C@@H]2F)C(F)F (single isomer, unassigned) [Example 53]	13
[O-][S@+](CF)c1nc2n(n1)[C@H](c1cccc(F)c1F)C[C@@H]2F (single isomer, unassigned) [Example 77]	280
CC(C)(F)S(=O)(=O)c1nc2n(n1)[C@H](c1ccccc1)C[C@@H]2F (single isomer, unassigned) [Example 165]	25
O=S(=O)(CC1CC1)c1nc2n(n1)[C@H](c1ccccc1)C[C@@H]2F (single isomer, unassigned) [Example 112]	60
CCS(=O)(=O)c1nc2n(n1)[C@H](c1ccccc1F)CC2 (single isomer, unassigned) [Example 8]	290
[O-][S@+](CC1CC1)c1nc2n(n1)[C@H](c1ccccc1)C[C@@H]2F (single isomer, unassigned) [Example 184]	130
O=S(=O)(c1nc2n(n1)[C@@H](c1ccccc1Cl)CC2)C(F)F [Example 15, (5R)-5-(2-chlorophenyl)-2-(difluoromethylsulfonyl)-6,7-dihydro-5H-pyrrolo[1,2-b][1,2,4]triazole]	1600
N#CC1(S(=O)(=O)c2nc3n(n2)[C@H](c2ccccc2)C[C@@H]3F)CC1 (single isomer, unassigned) [Example 157]	23

Other lines, results leading:

Ki [nM]	SMILES
< 5	[O-][S@@+](CF)c1nc2n(n1)[C@H](c1ccccc1Cl)C[C@@H]2F (single isomer, unassigned) [Example 86]
6	O=S(=O)(c1nc2n(n1)[C@H](c1ccccc1)C[C@@H]2F)C1COC1 (single isomer, unassigned) [Example 228]
4	[O-][S@+](c1nc2n(n1)[C@H](c1ccccc1)C[C@@H]2F)C(F)(F)F (single isomer, unassigned) [Example 181]
< 5	O=S(=O)(c1nc2n(n1)[C@H](c1cc(F)cc(F)c1)C[C@@H]2F)C(F)F (single isomer, unassigned) [Example 69]
4	[O-][S@+](c1nc2n(n1)[C@H](c1ccccc1)C[C@@H]2F)C1CC1 [Example 29, (5S,7S)-2-[(S)-cyclopropylsulfinyl]-7-fluoro-5-phenyl-6,7-dihydro-5H-pyrrolo[1,2-b][1,2,4]triazole]
12	[O-][S+](c1nc2n(n1)[C@H](c1ccccc1)C[C@@H]2F)C1CC1(F)F (stereo partly drawn) [Example 117, (5S,7S)-2-((2,2-difluorocyclopropyl)sulfinyl)-7-fluoro-5-phenyl-6,7-dihydro-5H-pyrrolo[1,2-b][1,2,4]triazole]
4	[O-][S@@+](CC(F)(F)F)c1nc2n(n1)[C@H](c1ccccc1)C[C@@H]2F (single isomer, unassigned) [Example 183]
< 5	O=S(=O)(c1nc2n(n1)[C@H](c1c(F)cccc1F)C[C@@H]2F)C1CC1(F)F (stereo partly drawn) [Example 123, (5S,7S)-2-(2,2-difluorocyclopropyl)sulfonyl-5-(2,6-difluorophenyl)-7-fluoro-6,7-dihydro-5H-pyrrolo[1,2-b][1,2,4]triazole]
5	O=S(=O)(c1nc2n(n1)[C@H](c1ccccc1)C[C@@H]2F)[C@@H]1C[C@H]1F (single isomer, unassigned) [Example 145]
12	[O-][S+](c1nc2n(n1)[C@H](c1ccccc1)C[C@@H]2F)C1CC(F)(F)C1 (stereo partly drawn) [Example 49, (5S,7S)-2-(3,3-difluorocyclobutyl)sulfinyl-7-fluoro-5-phenyl-6,7-dihydro-5H-pyrrolo[1,2-b][1,2,4]triazole]
< 5	O=S(=O)(c1nc2n(n1)[C@H](c1ccccc1)C[C@@H]2F)[C@H]1C[C@H](F)C1 (single isomer, unassigned) [Example 164]
13	CC(F)S(=O)(=O)c1nc2n(n1)[C@H](c1ccccc1)C[C@@H]2F (stereo partly drawn) [Example 158, (5S,7S)-7-fluoro-2-(1-fluoroethylsulfonyl)-5-phenyl-6,7-dihydro-5H-pyrrolo[1,2-b][1,2,4]triazole]
12	O=S(=O)(c1nc2n(n1)[C@H](c1cc(F)ccc1F)C[C@@H]2F)C1CC1(F)F (single isomer, unassigned) [Example 122]
3	[O-][S@+](c1nc2n(n1)[C@H](c1ccccc1F)C[C@@H]2F)C(F)F (single isomer, unassigned) [Example 52]
< 5	O=S(=O)(c1nc2n(n1)[C@H](c1cccc(F)c1F)C[C@@H]2F)C1CC1F (stereo in doubt) [Example 216, (5S,7S)-5-(2,3-difluorophenyl)-7-fluoro-2-[(1S,2S)-2-fluorocyclopropyl]sulfonyl-6,7-dihydro-5H-pyrrolo[1,2-b][1,2,4]triazole]
< 5	O=S(=O)(c1nc2n(n1)[C@H](c1ccccc1Cl)C[C@@H]2F)[C@H]1CC1(F)F (single isomer, unassigned) [Example 120]
5	O=S(=O)(c1nc2n(n1)[C@H](c1c(F)cccc1F)C[C@@H]2F)C1CC1 (single isomer, unassigned) [Example 35]
10	O=S(=O)(c1nc2n(n1)[C@H](c1cccc(F)c1F)C[C@@H]2F)[C@@H]1CC1(F)F (single isomer, unassigned) [Example 128]
8	CC(C)[S@@+]([O-])c1nc2n(n1)[C@H](c1ccccc1)C[C@@H]2F (single isomer, unassigned) [Example 187]
